The record followed here is patent US4476133A, “Triazolo-4,1-benzoxazepines having CNS activity” (Shionogi & Co., Ltd., priority 1980, dated 1984).

The nature of one data set: acute toxicity. Particulars: mouse, in vivo; oral; DS infant male mice, 20 to 23 g; observed 72 hours; Bliss method. How it is done: Test compounds were orally administered to DS infant male mice with four toxic doses. For each dose 10 mice were used, their body weights ranging from 20 to 23 grams. […] Mortality was calculated by the Bliss method [Bliss: Ann. Appln. Biol., 23, 134-307 (1935); Quant. J. Pharmacol., 11, 192 (1938)].

In another data set the test system is tonic convulsion. The data set is described as follows: antipentylenetetrazole test indicating anticonvulsive activities. The format is in vivo. As to conditions: Mus musculus; oral, 60 min before s.c. pentylenetetrazole 125 mg/kg; mortality observed for 2 h; DS male mice. As for the experimental part:
In determination of the antipentylenetetrazole activity, four test lots consisting of 4×10 DS male mice were employed. Within 15 minutes after single subcutaneous injection of 125 mg/kg (body weight of mouse) of pentylenetetrazole (a kind of convulsion reagent given as an aqueous solution), the mice were attacked by tonic convulsion which killed them. Test compound was orally administered 60 minutes before said s.c. injection. Observation was made for two hours postinjection of pentylenetetrazole. Anticonvulsant activity was determined in mortality percentage between 100% (all the mice dead) and 0% (all the mice alive). Test results are shown by preventive ED50 value (Effective Doses in mg/kg, a theoretical level of 50% alive and 50% dead)[Goodman, et al.: J. Pharmacol., 108, 168 (1953)].

The target of the next data set is benzodiazepine receptors. The data set is described as follows: radio receptor assay using receptors extracted from brains of rats and 3H-diazepam. Type of data set: binding. Particulars: receptors extracted from rat brains.

Bounds are passed on as bounds.

As for `Cc1nnc2n1-c1ccc(Cl)cc1C(c1ccccc1Cl)OC2C` (stereo not drawn) [Compound 13], in the data set “acute toxicity”, the LD50 (commonly the dose expected to kill half of the subjects tested) at 72 h is more than 1000 mg/kg. In the data set with tonic convulsion, the ED50 (as a rule, the dose at which the effect has come halfway, by size or by number of responders) was determined as 1.19 mg/kg.

Compound `Clc1ccc2c(c1)C(c1ccccc1Cl)OCc1nnc(N3CCOCC3)n1-2` (stereo not drawn) [Compound 2] came in with an LD50 at 72 h in the data set “acute toxicity” of more than 1000 mg/kg. The compound further showed an ED50 in the data set on tonic convulsion of 4.26 mg/kg.

In the case of `CCOCc1nnc2n1-c1ccc(Cl)cc1C(c1ccccc1Cl)OC2` (stereo not drawn) [Compound 7], in the data set “acute toxicity”, the LD50 at 72 h was more than 1000 mg/kg. The compound also yielded an ED50 in the data set with tonic convulsion of 2.13 mg/kg.

`CN1C(=O)CN=C(c2ccccc2)c2cc(Cl)ccc21` [Diazepam, reference compound] had an ED50 in the data set with tonic convulsion of 1.2 mg/kg.

On to `CN(C)Cc1nnc2n1-c1ccc(Cl)cc1C(c1ccccc1Cl)OC2` (stereo not drawn) [Compound 8], for which, in “acute toxicity”, the LD50 at 72 h is more than 1000 mg/kg. The compound also displayed a median effective dose (ED50) in the data set with tonic convulsion of 1.02 mg/kg.

In turn, `Clc1ccc2c(c1)C(c1ccccc1Cl)OCc1nnc(CN3CCCC3)n1-2` (stereo not drawn) [Compound 9] displayed a 50% lethal dose (LD50) at 72 h in “acute toxicity” of more than 1000 mg/kg. Also, it took a dose of 4.63 mg/kg to reach the 50% effect level with tonic convulsion (ED50).

In turn, `Clc1ccc2c(c1)C(c1ccccc1Cl)OCc1nnc(CN3CCOCC3)n1-2` (stereo not drawn) [Compound 5] yielded a 50% lethal dose (LD50) at 72 h in “acute toxicity” of more than 1000 mg/kg. The same compound displayed an ED50 in the data set with tonic convulsion of 3.81 mg/kg.

`Cn1nc2n(c1=O)-c1ccc(Cl)cc1C(c1ccccc1Cl)OC2` (stereo not drawn) [Compound 12]: the LD50 at 72 h in “acute toxicity” is more than 1000 mg/kg. For the same compound, the 50% effective dose (ED50) in the data set on tonic convulsion is 3.46 mg/kg.

In the case of `Clc1ccc2c(c1)C(c1ccccc1Cl)OCc1nncn1-2` (stereo not drawn) [Compound 1], the LD50 at 72 h in the data set “acute toxicity” was more than 1000 mg/kg. In the data set on tonic convulsion, this compound displayed an ED50 of 1.25 mg/kg.

Compound `CC(=O)OCCc1nnc2n1-c1ccc(Cl)cc1C(c1ccccc1Cl)OC2C` (stereo not drawn) [Compound 14] had an LD50 at 72 h in the data set “acute toxicity” of more than 1000 mg/kg. Also, the ED50 in the data set with tonic convulsion amounted to 1.67 mg/kg.

With `Cc1nnc2n1-c1ccc(Cl)cc1C(c1ccccc1C(F)(F)F)OC2` (stereo not drawn) [Compound 15], the LD50 at 72 h in “acute toxicity” was more than 1000 mg/kg. This compound also displayed an ED50 in the data set with tonic convulsion of 1.41 mg/kg.

With `CC(=O)OCc1nnc2n1-c1ccc(Cl)cc1C(c1ccccc1Cl)OC2` (stereo not drawn) [Compound 4], in “acute toxicity”, the LD50 at 72 h was more than 1000 mg/kg. It took a dose of 1.2 mg/kg to reach the 50% effect level in the data set on tonic convulsion (ED50).

As for `OCc1nnc2n1-c1ccc(Cl)cc1C(c1ccccc1Cl)OC2` (stereo not drawn) [1-Hydroxymethyl-6-(2-chlorophenyl)-8-chloro-4H,6H-(1,2,4)triazolo[4,3-a][4,1]benzoxazepine], on benzodiazepine receptors, the Ki (usually the equilibrium dissociation constant of an inhibitor or competing ligand from its target) came to 3.45 nM.

As for `CCCOCc1nnc2n1-c1ccc(Cl)cc1C(c1ccccc1Cl)OC2` (stereo not drawn) [Compound 11], the LD50 at 72 h in “acute toxicity” was more than 1000 mg/kg. Also, it took a dose of 3.09 mg/kg to reach the 50% effect level in the data set with tonic convulsion (ED50).

In turn, `OCc1nnc2n1-c1ccc(Cl)cc1C(c1ccccc1Cl)OC2` (stereo not drawn) [Compound 6] gave an LD50 at 72 h in “acute toxicity” of more than 1000 mg/kg. For the same compound, the ED50 in the data set on tonic convulsion came to 3.25 mg/kg.

For the compound `COCc1nnc2n1-c1ccc(Cl)cc1C(c1ccccc1Cl)OC2` (stereo not drawn) [Compound 3], the median lethal dose (LD50) at 72 h in the data set “acute toxicity” is more than 1000 mg/kg. For the same compound, the ED50 with tonic convulsion is 2.38 mg/kg.

The compound `CN1CCN=C(c2ccccc2)c2cc(Cl)ccc21` [Medazepam, reference compound] showed a median lethal dose (LD50) at 72 h in “acute toxicity” of more than 1000 mg/kg.

With `CC(C)OCc1nnc2n1-c1ccc(Cl)cc1C(c1ccccc1Cl)OC2` (stereo not drawn) [Compound 10], the LD50 at 72 h in the data set “acute toxicity” was more than 1000 mg/kg. Besides, the ED50 in the data set on tonic convulsion was 2.42 mg/kg.
